From US4264625A, “Pesticidal unsymmetrical bis-arylcarbamate sulfide compounds” (Union Carbide Corporation, priority 1978, dated 1981)

Key:
Assay type in all cases: in vivo
[1] = tested on: Mexican bean beetle (Epilachna varivestis, Muls.); experiment: Mexican Bean Beetle Leaf Spray Test; parameters: key: A: excellent control; B: partial control; C: no control; details: 500 ppm leaf spray, fourth instar larvae, three days, mortality rating
Method: (§1) Suspensions of the test compounds were prepared by dissolving one gram of compound in 50 milliliters of acetone in which had been dissolved 0.1 gram (10 percent of the weight of compound) of an alkylphenoxy polyethoxyethanol surfactant, as an emulsifying or dispersing agent. The resulting solution was mixed into 150 milliliters of water to give roughly 200 milliliters of a suspension containing the compound in finely divided form. The thus-prepared stock suspension contained 0.5 percent by weight of compound. The test concentrations in parts per million by weight employed in the tests described hereinbelow were obtained by appropriate dilutions of the stock suspension with water. The test procedures were as follows:
Mexican Bean Beetle Leaf Spray Test
Fourth instar larvae of the Mexican bean beetle (Epilachna varivestis, Muls.), reared on Tendergreen bean plants at a temperature of 80°±5° F. and 50±5 percent relative humidity, were the test insects.
The test compounds were formulated by diluting the stock suspension with water to give a suspension containing 500 parts of test compound per million parts of final formulation. Potted Tendergreen bean plants of standard height and age were placed on a revolving turntable and sprayed with 100-110 milliliters of test compound formulation by use of a DeVilbiss spray gun set at 10 psig air pressure. This application, which lasted 25 seconds, was sufficient to wet plants to run-off. As a control, 100-110 milliliters of a water-acetone-emulsifier solution containing no test compound were also sprayed on infested plants. When dry, the paired leaves were separated and each was placed in a 9 centimeter Petri dish lined with moistened filter paper. Five randomly selected larvae were introduced into each dish, and the dishes were closed. The closed dishes were labeled and held at a temperature of 80°±5° F. for three days. Although the larvae could easily consume the leaf within 24 to 48 hours, no more food was added. Larvae which were unable to move the length of the body, even upon stimulation, were considered dead.
(§2) In these tests the pesticidal activity of the compounds against aphid, mite, Southern Armyworm, Bean Beetle and house fly was rated as follows: […]

Corn = details: 2500 ppm spray, ten days, rating 1-5
Method: (§3) POST-EMERGENT HERBICIDAL TEST
(§4) Experiments were also conducted to determine the phytotoxicity of representative compositions with respect to healthy fresh plants. Solutions of the compounds were prepared as described above to provide a concentration of 2500 parts per million of the test compound. The test plants were sprayed in accordance with the procedure described above for the Mite Foliage Spray Test so as to deliver approximately 100 milliliters of test solution to the leaves of each plant tested. The sprayed plants and controls were set aside for approximately one hour to allow the solutions to dry and were then placed in the greenhouse. After ten days the plants were visually inspected to determine the extent of foliage injury. A rating of 1 indicates no perceptible injury; 5 indicates the plant was dead and ratings of 2, 3 and 4 indicate intermediate degrees of injury based upon the number and extent to which leaves were injured.

Bean = details: 2500 ppm spray, ten days, rating 1-5
Method: as §3, §4

Soybean = details: 2500 ppm spray, ten days, rating 1-5
Method: as §3, §4

Tomato = details: 2500 ppm spray, ten days, rating 1-5
Method: as §3, §4

Cotton = details: 2500 ppm spray, ten days, rating 1-5
Method: as §3, §4

[2] = tested on: bean aphid (Aphis fabae Scop.); experiment: Bean Aphid Foliage Spray Test; parameters: key: A: excellent control; B: partial control; C: no control; details: 500 ppm foliage spray, 24 hours, mortality rating
Method: as §1
Bean Aphid Foliage Spray Test
Adults and nymphal stages of the bean aphid (Aphis fabae Scop.) reared on potted dwarf nasturtium plants at 65°-70° F. and 50-70 percent relative humidity, constituted the test insects. For testing purposes, the number of aphids per pot was standardized to 100-150 by trimming plants containing excess aphids.
The test compounds were formulated by diluting the stock suspension with water to give a suspension containing 500 parts of test compound per million parts of final formulation.
The potted plants (one pot per compound tested) infested with 100-150 aphids, were placed on a revolving turntable and sprayed with 100-110 milliliters of test compound formulation by use of a DeVilbiss spray gun set at 40 psig. air pressure. This application, which lasted 25 seconds, was sufficient to wet the plants to run-off. As a control, 100-110 milliliters of a water-acetone-emulsifier solution containing no test compound were also sprayed on infested plants. After spraying, the pots were placed on their sides on a sheet of white standard mimeograph paper which had been previously ruled to facilitate counting. Temperature and humidity in the test room during the 24 hour holding period were 65°-70° F. and 50-70 percent, respectively. Aphids which fell onto the paper and were unable to remain standing after being uprighted were considered dead. Aphids remaining on the plants were observed closely for movement and those which were unable to move the length of the body upon stimulation by prodding were considered dead. Percent mortality was recorded for various concentration levels.
as §2

[3] = tested on: house flies (Musca domestica, L.); experiment: Fly Bait Test; parameters: key: A: excellent control; B: partial control; C: no control; details: 500 ppm in sugar-solution bait, 24 hours, mortality rating
Method: as §1
Four to six day old adult house flies (Musca domestica, L.) reared according to the specifications of the Chemical Specialties Manufacturing Association (Blue Book, McNair-Dorland Co., N.Y. 1954; pages 243-244, 261) under controlled conditions of 80°±5° F. and 50±5 percent relative humidity, were the test insects. The flies were immobilized by anesthetizing with carbon dioxide and twenty five immobilized individuals, males and females, were transferred to a cage consisting of a standard food strainer about five inches in diameter which was inverted over a wrapping-paper-covered surface. The test compounds were formulated by diluting the stock suspension with a 10 percent (by weight) sugar solution to give a suspension containing 500 parts of test compound per million parts of final formulation, by weight. Ten milliliters of the test formulation were added to a souffle cup containing a one-inch square of an absorbent cotton pad. This bait cup was introduced and centered on the blotting paper under the food strainer prior to admitting the anesthetized flies. The caged flies were allowed to feed on the bait for twenty four hours, at a temperature of 80°±5° F. and the relative humidity of 50±5 percent.
as §2

[4] = tested on: two-spotted mite (Tetranychus urticae Koch); experiment: Mite Foliage Spray Test; parameters: key: A: excellent control; B: partial control; C: no control; details: 500 ppm foliage spray, six days, mortality rating
Method: as §1
Adults and nymphal stages of the two-spotted mite (Tetranychus urticae Koch), reared on Tendergreen bean plants at 80±5 percent relative humidity, were the test organisms. Infested leaves from a stock culture were placed on the primary leaves of two bean plants six to eight inches in height, growing in a two-and-a-half inch clay pot. 150-200 Mites, a sufficient number for testing, transferred from the excised leaves to the fresh plants in a period of twenty four hours. Following the twenty four hour transfer period, the excised leaves were removed from the infested plants. The test compounds were formulated by diluting the stock suspension with water to give a suspension containing 500 parts of test compound per million parts of final formulation. The potted plants (one pot per compound) were placed on a revolving turntable and sprayed with 100-110 milliliters of test compound formulation by use of a DeVilbiss spray gun set at 40 psig. air pressure. This application, which lasted 25 seconds, was sufficient to wet the plants to run-off. As a control, 100-110 milliliters of a water solution containing acetone and emulsifier in the same concentrations as the test compound formulation, but containing no test compound, were also sprayed on infested plants. The sprayed plants were held at 80±5 percent relative humidity for six days, after which a mortality count of motile forms was made. Microscopic examination for motile forms was made on the leaves of the test plants. Any individual which was capable of locomotion upon prodding was considered living.
as §2

[5] = tested on: southern armyworm (Prodenia eridania, (Cram.)); experiment: Southern Armyworm Leaf Spray Test; parameters: key: A: excellent control; B: partial control; C: no control; details: 500 ppm leaf spray, larvae, three days, mortality rating
Method: as §1
Southern Armyworm Leaf Spray Test
Larvae of the southern armyworm (Prodenia eridania, (Cram.)), reared on Tendergreen bean plants at a temperature of 80°±5° F. and a relative humidity of 50±5 percent, constituted the test insects.
The test compounds were formulated by diluting the stock suspension with water to give a suspension containing 500 parts of test compound per million parts of final formulation. Potted Tendergreen bean plants of standard height and age were placed on a revolving turntable and sprayed with 100-110 milliliters of test compound formulation by use of a DeVilbiss spray gun set at 10 psig air pressure. This application, which lasted 25 seconds, was sufficient to wet plants to run-off. As a control, 100-110 milliliters of a water-acetone-emulsifier solution containing no test compound were also sprayed on infested plants. When dry, the paired leaves were separated and each one was placed in a 9 centimeter Petri dish lined with moistened filter paper. Five randomly selected larvae were introduced into each dish and the dishes were closed. The closed dishes were labeled and held at 80°-85° F. for three days. Although the larvae could easily consume the whole leaf within twenty-four hours, no more food was added. Larvae which were unable to move the length of the body, even upon stimulation by prodding, were considered dead. Percent mortality was recorded for various concentration levels.
as §2

SMILES	Pesticidal Activity, Mexican Bean Beetle [1]	Phytotoxicity, Corn (Corn)	Phytotoxicity, Bean (Bean)	Phytotoxicity, Soybean (Soybean)	Phytotoxicity, Tomato (Tomato)	Phytotoxicity, Cotton (Cotton)	Pesticidal Activity, Aphid [2]	Pesticidal Activity, House fly [3]	Pesticidal Activity, Mite [4]	Pesticidal Activity, Southern Armyworm [5]
CN(SN(C)C(=O)Oc1cccc2c1OC(C)(C)C2)C(=O)Oc1ccccc1C1SCCS1	A	1	1	1	1	1	A	A	B	A
Cc1cc(OC(=O)N(C)SN(C)C(=O)Oc2ccc(N=CN(C)C)c(C)c2)ccc1N=CN(C)C [drawing 37]	A	1	1	1	1	1	A	A	A	A
C=CCc1ccc(OC(=O)N(C)SN(C)C(=O)Oc2ccc(CC=C)cc2OC)c(OC)c1	C	1	1	1	1	1	C	C	C	C
Cc1cc(OC(=O)N(C)SN(C)C(=O)Oc2ccc(N=CN(C)C)c(C)c2)ccc1N=CN(C)C [drawing 41]	A	1	1	2	1	1	A	A	A	A
CN(SN(C)C(=O)Oc1ccc(Oc2ccccc2)cc1)C(=O)Oc1ccc(Oc2ccccc2)cc1	C	1	1	1	1	1	C	C	C	C
COC(=O)Nc1ccc(OC(=O)N(C)SN(C)C(=O)Oc2ccc(NC(=O)OC)c(C(C)C)c2)cc1C(C)C	A	1	1	1	1	1	C	C	C	A
C#CCOc1ccccc1OC(=O)N(C)SN(C)C(=O)Oc1cccc2ccccc12	A	1	1	2	1	1	A	A	C	A
